Values quoted from earlier work, collected in patent US8853454B2, “Quaternary ammonium salts as microbe inhibitors” (Mionix Corporation, priority 2006, dated 2014).

Conditions: in vivo

## OCCCl [2-chloroethanol]
  oral lethal dose: 50 to 500 mg/kg
